# Columns and labels:
# [1] = system: human breast cancer cells (BT474); test: ATPLite cell viability, CTB003 with chemotherapeutic drug; type: cell-based; conditions: combination with CTB003
# Protocol: (§1) The cell lines selected for study included: human breast cancer cells (BT474), human colon cancer cells (SW620), human lung cancer cells (A437), human colon cancer cells (SW1116), and human pancreatic cancer cells (Panc 1). All cells were purchased from ATCC.
# (§2) After culture at 37° C. overnight, cell viability was determined using the ATPLite kit according to the manufacturer's instructions (Packard Instruments, Meriden, Conn.): add 50 μl of cell lysis buffer and then 50 μl of substrate buffer. The reaction was counted in a luminescent reader. Cell viability was calculated as (cpm of treated cells/cmp of control cells)×100%.
# [2] = system: MDA231 human breast cancer cell line; test: Xenograft model, tumor size; type: in vivo, Balb/c nude mice
# Description: Human cancer cell lines that were used for generation of murine xenograft models of human cancer are: a) MDA231 human breast cancer cell line; b) 7402 human liver cancer cell line; c) Colo205 human colon cancer cell lines; and d) MIAcapa human pancreatic cancer cell line. All cells were purchased from ATCC, and cultured in DMEM supplemented with 10% FCS.
# Six (6) to 8 week-old Balb/c nude mice were inoculated subcutaneously with 1×10^7 human cancer cells. At day 7-14 after tumor inoculation depending on inoculated tumor cell lines, over 90% mice developed viable tumor mass. The tumor-bearing mice were randomly divided into two groups: one was untreated control group, and another was CTB003 treated group. Human cancer tumor growth was evaluated by sizes of tumor. After inoculation, tumor sizes were measured weekly.
# The treatment was repeated six times within three weeks.
# (§3) Six (6) to 8 week-old Balb/c nude mice were inoculated subcutaneously with 1×10^7 human MDA231 breast cancer cells. […] Human breast cancer tumor growth was evaluated by measuring the size of tumor. After inoculation the tumor sizes were measured in mice weekly. […]
# as §3
# [3] = system: human colon cancer cells (SW1116); test: ATPLite cell viability, CTB003 with chemotherapeutic drug or mono-specific antibody; type: cell-based; conditions: for effect on CTB003 killing: combination with CTB003
# Protocol: as §1, §2
# as §2, with “for 16 h,” for “overnight,”
# [4] = system: human lung cancer cells (A437); test: ATPLite cell viability, CTB003 with chemotherapeutic drug; type: cell-based; conditions: combination with CTB003
# Protocol: as §1, §2
# [5] = system: human pancreatic cancer cells (Panc-1); test: as above; type: cell-based; conditions: combination with CTB003
# Protocol: as §1, §2
# [6] = system: human colon cancer cells (SW620); test: as above; type: cell-based; conditions: combination with CTB003
# Protocol: as §1, §2
# [7] = system: Human B lymphoma cells (Ramos); test: Flow cytometry analysis of cell surface binding; conditions: 10 μg/ml antibody; cells express high TRAIL-R1, low TRAIL-R2
# Description: (§4) Tumor cells may express differential levels of cell surface of TRAIL-R1 and TRAIL-R2, therefore a monospecific antibody directed against either TRAIL-R1 or TRAIL-R2 may not able to bind to and induce apoptosis of all tumor cells when administered alone. […] Human T leukemia cells (Jurkat) only express TRAIL-R2 but not TRAIL-R1. Human B lymphoma cells (Ramos) express high levels of TRAIL-R1 but low levels of TRAIL-R2.
# (§5) 1×10^6 single cells were collected from cell culture medium and washed twice with FACS buffer (PBS containing 5% FCS, 0.1% NaN3, pH7.4). […] After washing twice with 1 ml FACS buffer, cells were further incubated with PE-conjugated goat anti-mouse IgG1 antibody on ice for 30 minutes. After washing twice with 1 ml FACS buffer, cells were suspended in 0.5 ml FACS buffer and 10,000 viable cells were analyzed by FACScan flow cytometer.
# [8] = system: Human T leukemia cells (Jurkat); test: Flow cytometry analysis of cell surface binding; conditions: 10 μg/ml antibody; cells express TRAIL-R2 but not TRAIL-R1
# Description: as §4, §5
# [9] = system: Human B lymphoma cells (Ramos); test: ATPLite cell viability, apoptosis-inducing activity; type: cell-based; conditions: 10-1000 ng/ml antibody, 16 h
# Protocol: as §4
# After culture at 37° C. for 16 h, the cell viability of each culture was determined using the ATPLite kit according to the manufacturer's instructions (Packard Instruments, Meriden, Conn.): add 50 μl of cell lysis buffer and then 50 μl of substrate buffer. The reaction was counted in a luminescent reader. Cell viability was calculated as (cpm of treated cells/cmp of control cells)×100%.
# [10] = system: binding of CTB003 to TRAIL-R2; test: Competitive inhibition ELISA with polypeptides; parameters: species or system human; conditions: 1 μg/ml CTB003, various concentrations of peptide
# Protocol: (§6) ELISA plate was coated with 1 μg/ml TRAIL-R2-Fc fusion protein in PBS at 4° C. overnight. After washing three times with PBS, the plate was blocked with 3% BSA PBS at room temperature for one hour. […] The unbound antibodies were removed by washing three time with PBS, and then HRP-conjugated goat anti-mouse IgG1 was added at 37° C. for 30 minutes. After washing three times with PBS, TMB substrate buffer was added for 10 minutes and then the reaction was stopped by adding 2N H2SO4. The values of optical density were recorded in a ELISA plate reader with a dual wavelength at 450 nm/650 nm.
# as §6, with “μg/ml TRAIL-R1 or” for “μg/ml”
# [11] = system: binding of CTB003 to TRAIL-R1; test: Competitive inhibition ELISA with polypeptides; parameters: species or system human; conditions: 1 μg/ml CTB003, various concentrations of peptide
# Protocol: as §6, with “μg/ml TRAIL-R1 or” for “μg/ml”
# [12] = system: binding of humanized chimeric CTB003 to TRAIL-R1; test: Competitive inhibition ELISA with polypeptides; parameters: species or system human; conditions: various concentrations of peptide
# Protocol: as §6, with “μg/ml TRAIL-R1 or” for “μg/ml”
# [13] = system: binding of humanized chimeric CTB003 to TRAIL-R2; test: Competitive inhibition ELISA with polypeptides; parameters: species or system human; conditions: various concentrations of peptide
# Protocol: as §6, with “μg/ml TRAIL-R1 or” for “μg/ml”
# Chain of binding of CTB003 to TRAIL-R2 (as listed by the source): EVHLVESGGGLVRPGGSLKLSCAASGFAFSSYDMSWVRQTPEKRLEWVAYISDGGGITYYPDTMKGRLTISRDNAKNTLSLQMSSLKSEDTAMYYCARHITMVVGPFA
# Chain of binding of CTB003 to TRAIL-R2 (as listed by the source): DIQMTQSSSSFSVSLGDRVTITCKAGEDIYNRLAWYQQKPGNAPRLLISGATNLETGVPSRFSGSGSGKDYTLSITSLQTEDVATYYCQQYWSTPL
# Chain of binding of CTB003 to TRAIL-R2 (O14763 56-210 partner limits assumed): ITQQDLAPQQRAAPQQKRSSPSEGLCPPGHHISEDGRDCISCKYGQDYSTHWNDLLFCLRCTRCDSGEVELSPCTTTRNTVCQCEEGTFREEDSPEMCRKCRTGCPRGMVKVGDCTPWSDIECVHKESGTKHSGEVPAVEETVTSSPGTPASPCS
# Chain of binding of CTB003 to TRAIL-R1 (O00220 24-239 partner limits assumed): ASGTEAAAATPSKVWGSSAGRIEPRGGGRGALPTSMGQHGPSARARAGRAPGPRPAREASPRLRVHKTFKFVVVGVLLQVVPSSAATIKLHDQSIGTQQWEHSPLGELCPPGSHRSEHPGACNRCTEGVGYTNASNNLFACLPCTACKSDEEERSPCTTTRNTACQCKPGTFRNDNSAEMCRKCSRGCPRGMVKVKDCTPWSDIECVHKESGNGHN
# Chain of binding of humanized chimeric CTB003 to TRAIL-R2 (as listed by the source, change not shown): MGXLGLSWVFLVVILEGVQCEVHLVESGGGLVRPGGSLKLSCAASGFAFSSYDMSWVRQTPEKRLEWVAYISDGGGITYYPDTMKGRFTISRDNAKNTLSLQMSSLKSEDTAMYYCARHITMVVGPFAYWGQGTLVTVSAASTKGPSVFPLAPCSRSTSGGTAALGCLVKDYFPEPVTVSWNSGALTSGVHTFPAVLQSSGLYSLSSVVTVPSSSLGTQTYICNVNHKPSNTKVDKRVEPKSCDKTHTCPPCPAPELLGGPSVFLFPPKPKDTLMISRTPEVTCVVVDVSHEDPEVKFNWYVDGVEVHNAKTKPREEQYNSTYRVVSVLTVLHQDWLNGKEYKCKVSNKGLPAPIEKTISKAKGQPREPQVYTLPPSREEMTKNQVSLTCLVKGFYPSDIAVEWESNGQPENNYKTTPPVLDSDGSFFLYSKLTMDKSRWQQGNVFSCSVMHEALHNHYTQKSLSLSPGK
# Chain of binding of humanized chimeric CTB003 to TRAIL-R2 (as listed by the source, change not shown): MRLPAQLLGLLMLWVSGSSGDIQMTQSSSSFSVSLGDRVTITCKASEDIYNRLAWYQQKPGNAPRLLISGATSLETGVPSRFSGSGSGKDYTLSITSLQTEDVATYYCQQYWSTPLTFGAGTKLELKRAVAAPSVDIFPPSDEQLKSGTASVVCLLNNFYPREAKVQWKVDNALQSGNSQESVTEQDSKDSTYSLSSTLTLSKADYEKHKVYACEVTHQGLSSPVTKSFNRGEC
# Chain of binding of humanized chimeric CTB003 to TRAIL-R2 (O14763 56-210 partner limits assumed): as the sequence (O14763 56-210 partner limits assumed) above
# Chain of binding of humanized chimeric CTB003 to TRAIL-R1 (O00220 24-239 partner limits assumed): as the sequence (O00220 24-239 partner limits assumed) above
molecule,measurement,setting,value
"COc1cccc2c1C(=O)c1c(O)c3c(c(O)c1C2=O)C[C@@](O)(C(=O)CO)C[C@@H]3O[C@H]1C[C@H](N)[C@H](O)[C@H](C)O1 [Adriamycin, reference compound]",effect on CTB003 killing,[1],synergistically enhanced CTB003 killing in a dose-dependent fashion
same,effect on tumor,"[2]; Adriamycin alone, 100 μg per dose i.p. twice a week for three times",tumor inhibition was observed but tumor size reduction was not remarkable
"CCc1c2c(nc3ccc(OC(=O)N4CCC(N5CCCCC5)CC4)cc13)-c1cc3c(c(=O)n1C2)COC(=O)[C@]3(O)CC [CTP-11, reference compound]",effect on CTB003 killing,[3],synergistically enhanced CTB003 killing in a dose-dependent fashion
"N.N.[Cl][Pt][Cl] [Cisplatin, reference compound]",effect on CTB003 killing,[4],synergistically enhanced CTB003 killing in a dose-dependent fashion
"Nc1ccn([C@@H]2O[C@H](CO)[C@@H](O)C2(F)F)c(=O)n1 [Gemcitabine, reference compound]",effect on CTB003 killing,[5],synergistically enhanced CTB003 killing in a dose-dependent fashion
CC(=O)O[C@H]1C(=O)[C@@]2(C)[C@H]([C@H](OC(=O)c3ccccc3)[C@]3(O)C[C@H](OC(=O)[C@H](O)[C@@H](NC(=O)c4ccccc4)c4ccccc4)C(C)=C1C3(C)C)[C@]1(OC(C)=O)CO[C@@H]1C[C@@H]2O [Taxol],effect on CTB003 killing,[6],synergistically enhanced CTB003 killing in a dose-dependent fashion
CTB006: Murine monospecific antibody directed to TRAIL-R2 receptor; hybridoma CGMCC 1691,effect on CTB003 killing,[3],synergistically enhanced CTB003 killing in a dose-dependent fashion
same,cell killing by antibody alone,[3]; single antibody,did not induce cell killing
same,effect on tumor,"[2]; CTB006 alone, 100 μg i.p. twice a week for three times",tumor inhibition was observed but tumor size reduction was not remarkable
same,cell surface staining,[7],only weakly stained
same,cell surface staining,[8],positively stained
same,susceptibility to antibody-induced apoptosis,[9],not susceptible
"MVKVGDCTPWSDIECVHKESGTKHSGEAPA [peptide G, TRAIL-R2 (aa164-aa193), reference compound]",inhibition of antibody binding,[10],inhibited the binding of CTB003 to TRAIL-R2 in a dose-dependent manner
"RKCRTGCPRGMVKVGDCTPWSDIECVHKES [peptide F, TRAIL-R2 (aa154-aa183), reference compound]",inhibition of antibody binding,[10],inhibited the binding of CTB003 to TRAIL-R2 in a dose-dependent manner
VGDCTPWSDIECVHKE [peptide H],inhibition of antibody binding,[10],inhibited the binding of CTB003 to TRAIL-R2 in a dose-dependent manner
same,inhibition of antibody binding,[11],inhibited the binding of CTB003 to TRAIL-R1 in a dose-dependent manner
same,inhibition of antibody binding,[12],inhibited the binding of humanized chimeric CTB003 to TRAIL-R1 in a dose-dependent manner
same,inhibition of antibody binding,[13],inhibited the binding of humanized chimeric CTB003 to TRAIL-R2 in a dose-dependent manner
VKDCTPWSDIECVHKE [peptide I],inhibition of antibody binding,[10],inhibited the binding of CTB003 to TRAIL-R2 in a dose-dependent manner
same,inhibition of antibody binding,[11],inhibited the binding of CTB003 to TRAIL-R1 in a dose-dependent manner
same,inhibition of antibody binding,[12],inhibited the binding of humanized chimeric CTB003 to TRAIL-R1 in a dose-dependent manner
same,inhibition of antibody binding,[13],inhibited the binding of humanized chimeric CTB003 to TRAIL-R2 in a dose-dependent manner
